Data: DBAASP
≈ marks a conversion by molar mass, not a printed value. Where “and” joins values, the source holds several entries; their conditions need not be identical. Equal entries are not always repeated. Blank lines part the entries; values can stand above or below the compound they belong to.

Experiments:
Assay in all cases: ≥ marks a high value that may be exact or a test limit, other limits are often not marked, values filed in µg/mL are converted to µM
[1] = test system: Pseudomonas aeruginosa CIP A22
[2] = test system: Escherichia coli ATCC 25922
[3] = test system: Staphylococcus aureus ATCC 25923
[4] = test system: Pseudomonas aeruginosa ATCC 27853
[5] = test system: Escherichia coli ATCC 54127
[6] = test system: Pseudomonas aeruginosa PAO1
[7] = test system: Cryptococcus neoformans var. grubii H99
[8] = test system: Staphylococcus aureus ATCC 29213
Escherichia coli ML-35p = test system: Escherichia coli ML-35p
[9] = test system: Staphylococcus aureus 209P
Candida krusei IFM 56881 = test system: Candida krusei IFM 56881
[10] = test system: Micrococcus luteus VKM B-1314
Candida albicans SC5314 = test system: Candida albicans SC5314
[11] = test system: Candida parapsilosis ATCC 22019
[12] = test system: Klebsiella pneumoniae CI 287
[13] = test system: Bacillus subtilis VKM B-886
[14] = test system: Pseudomonas putida NCIM 2102
Micrococcus luteus MT166 = test system: Micrococcus luteus MT166
Escherichia coli W160-37 = test system: Escherichia coli W160-37
Bacillus subtilis = test system: Bacillus subtilis
[15] = test system: Staphylococcus aureus ATCC 8530
[16] = test system: Saccharomyces cerevisiae ATCC 8530
Micrococcus luteus = test system: Micrococcus luteus
Escherichia coli = test system: Escherichia coli
[17] = test system: Staphylococcus aureus USA 100
[18] = test system: Candida albicans ATCC 90028
[19] = test system: Salmonella enterica subsp. enterica serovar Enteritidis
[20] = test system: Pseudomonas aeruginosa ATCC 9027
Listeria innocua = test system: Listeria innocua
[21] = test system: Staphylococcus aureus USA 300
[22] = test system: Salmonella typhimurium C587
[23] = test system: Pseudomonas aeruginosa PA14
Cutibacterium acnes C2 = test system: Cutibacterium acnes C2
[24] = test system: Enterobacter cloacae 218R
[25] = test system: Klebsiella pneumoniae ATCC 13883
[26] = test system: Salmonella enterica subsp. enterica serovar Typhimurium ATCC 14028s
Cutibacterium acnes PJI2 = test system: Cutibacterium acnes PJI2
[27] = test system: Enterococcus faecalis ATCC 19433
Pseudomonas aeruginosa = test system: Pseudomonas aeruginosa
[28] = test system: Klebsiella pneumoniae 1549216
[29] = test system: Burkholderia cenocepacia 4813
Acinetobacter baumannii = test system: Acinetobacter baumannii
Escherichia coli HB101 = test system: Escherichia coli HB101
[30] = test system: Klebsiella pneumoniae KPLN649
[31] = test system: Acinetobacter baumannii ATCC 17987
[32] = test system: Mycobacterium tuberculosis H37Rv
Escherichia coli O157 = test system: Escherichia coli O157
Cupriavidus necator H16 = test system: Cupriavidus necator H16
Escherichia coli JM109 = test system: Escherichia coli JM109
[33] = test system: Pseudomonas putida GPp104
[34] = test system: Escherichia coli BL21(DE3)
[35] = test system: Staphylococcus epidermidis PIA 8400
[36] = test system: Enterococcus faecalis ATCC 29212

SMILES: CC[C@H](C)[C@H](NC(=O)CNC(=O)[C@H](CCCCN)NC(=O)[C@H](CC(C)C)NC(=O)[C@H](CCSC)NC(=O)[C@H](CC(N)=O)NC(=O)[C@H](CCCCN)NC(=O)[C@H](Cc1c[nH]c2ccccc12)NC(=O)[C@H](CC(C)C)NC(=O)[C@H](C)N)C(=O)NCC(=O)N[C@@H](CCCCN)C(=O)N[C@@H](CC(C)C)C(=O)N[C@@H](C)C(=O)NCC(=O)N[C@@H](CCC(N)=O)C(=O)N[C@@H](C)C(=O)N[C@@H](C)C(=O)N[C@@H](CC(C)C)C(=O)NCC(=O)N[C@@H](C)C(=O)N[C@H](C(=O)N[C@@H](CCCCN)C(=O)N[C@H](C(=O)N[C@@H](CC(C)C)C(=O)N[C@H](C(=O)NCC(=O)N[C@@H](C)C(=O)O)C(C)C)[C@@H](C)O)C(C)C [ALWKNMLKGIGKLAGQAALGAVKTLVGA]
MIC [1]: 2.3 µM (≈ 6.39 µg/mL)
MIC [2]: 2.6 µM (≈ 7.23 µg/mL)
MIC [3]: 1.3 µM (≈ 3.61 µg/mL)
MIC [4]: 5 µM (≈ 13.9 µg/mL)
MIC [5]: 2.3 µM (≈ 6.39 µg/mL)

SMILES: NC(N)=NCCC[C@H](N)C(=O)N[C@@H](Cc1ccc(O)cc1)C(=O)N[C@@H](Cc1cnc[nH]1)C(=O)O [RYH]
MIC (Micrococcus luteus): 4 µM (≈ 1.9 µg/mL)
MIC (Escherichia coli): 4 µM (≈ 1.9 µg/mL)
MIC [17]: ≥ 100 µM
MIC [18]: ≥ 100 µM
MIC [19]: 1 µM (≈ 0.475 µg/mL)
MIC [20]: > 100 µM
MIC (Listeria innocua): 1 µM (≈ 0.475 µg/mL)
MIC [21]: ≥ 100 µM

SMILES: CC[C@H](C)[C@H](NC(=O)[C@H](CCCN=C(N)N)NC(=O)[C@@H](NC(=O)[C@H](C)NC(=O)[C@@H](NC(=O)[C@@H](NC(=O)[C@H](CC(C)C)NC(=O)[C@H](CCCN=C(N)N)NC(=O)[C@@H](N)C(C)C)[C@@H](C)CC)C(C)C)C(C)C)C(=O)N[C@@H](Cc1c[nH]c2ccccc12)C(=O)N[C@@H](CCCN=C(N)N)C(=O)N[C@@H](CCCN=C(N)N)C(N)=O [VRLIVAVRIWRR]
MIC [6]: 41.6 µM (≈ 64 µg/mL)
MIC [22]: ≥ 41.6 µM
MIC [23]: ≥ 41.6 µM and 20.8 µM
MIC (Cutibacterium acnes C2): ≥ 41.6 µM
MIC [24]: ≥ 41.6 µM
MIC [25]: 5.21 µM (≈ 7.99 µg/mL)
MIC [26]: ≥ 41.6 µM
MIC (Cutibacterium acnes PJI2): ≥ 41.6 µM
MIC [27]: ≥ 167 µM
MIC (Pseudomonas aeruginosa): 12.4 µM (≈ 19 µg/mL)
MIC [28]: ≥ 41.6 µM
MIC [29]: ≥ 167 µM
MIC (Acinetobacter baumannii): ≥ 83.3 µM
MIC (Escherichia coli HB101): 20.8 µM (≈ 32 µg/mL)
MIC [30]: 20.8 µM (≈ 32 µg/mL)
MIC [3]: 167 µM (≈ 256 µg/mL)
MIC [31]: ≥ 83.3 µM
MIC [32]: 10.4 µM (≈ 16 µg/mL)
MIC (Escherichia coli O157): 20.8 µM (≈ 32 µg/mL)

SMILES: CC[C@H](C)[C@H](NC(=O)[C@H](Cc1ccc(O)cc1)NC(=O)[C@@H](NC(=O)[C@@H]1CCCN1C(=O)[C@H](CCCN=C(N)N)NC(=O)[C@H](CCCN=C(N)N)NC(=O)[C@@H](NC(=O)[C@@H](N)C(C)C)C(C)C)C(C)C)C(=O)N1CCC[C@H]1C(=O)N[C@@H](CCC(N)=O)C(=O)N1CCC[C@H]1C(=O)N[C@@H](CCCN=C(N)N)C(=O)N1CCC[C@H]1C(=O)N1CCC[C@H]1C(=O)N[C@@H](Cc1cnc[nH]1)C(=O)N1CCC[C@H]1C(=O)N[C@@H](CCCN=C(N)N)C(=O)N[C@@H](CC(C)C)C(=O)O [VVRRPVYIPQPRPPHPRL]
MIC (Cupriavidus necator H16): ≥ 50 µM
MIC (Escherichia coli JM109): 12.5 µM (≈ 27.2 µg/mL)
MIC [33]: 25 µM (≈ 54.4 µg/mL)
MIC [34]: 1.25 µM (≈ 2.72 µg/mL)

Further lines, results first:

MIC [6]: 0.5 µM (≈ 1.12 µg/mL)
MIC [7]: 1.79 µM (≈ 4 µg/mL)
MIC [8]: 16 µM (≈ 35.8 µg/mL)
MIC (Escherichia coli ML-35p): 0.062 µM (≈ 0.139 µg/mL)
MIC [9]: 0.5 µM (≈ 1.12 µg/mL)
MIC (Candida krusei IFM 56881): 28.6 µM (≈ 63.9 µg/mL)
MIC [10]: 2 µM (≈ 4.47 µg/mL)
MIC (Candida albicans SC5314): 14.3 µM (≈ 31.9 µg/mL)
MIC [11]: 7.14 µM (≈ 16 µg/mL)
MIC [12]: 0.5 µM (≈ 1.12 µg/mL)
MIC [13]: 1 µM (≈ 2.24 µg/mL)
SMILES: CC[C@H](C)[C@@H]1NC(=O)CNC(=O)[C@H](CCCN=C(N)N)NC(=O)[C@H](Cc2ccc(O)cc2)NC(=O)[C@@H]2CSSC[C@H](NC1=O)C(=O)N[C@@H](Cc1ccc(O)cc1)C(=O)N[C@@H](CCCN=C(N)N)C(=O)N[C@@H](CCCCN)C(=O)N[C@H](C(=O)N[C@@H](CCCN=C(N)N)C(=O)O)CSSC[C@H](NC(=O)[C@H](Cc1c[nH]c3ccccc13)NC(=O)[C@@H](N)CCCCN)C(=O)N[C@@H](Cc1ccccc1)C(=O)N[C@@H](CCCN=C(N)N)C(=O)N[C@@H](C(C)C)C(=O)N2 [KWCFRVCYRGICYRKCR]

MIC [14]: 28.4 µM (≈ 39.9 µg/mL)
MIC (Micrococcus luteus MT166): 21.3 µM (≈ 29.9 µg/mL)
MIC (Escherichia coli W160-37): 28.4 µM (≈ 39.9 µg/mL)
MIC (Bacillus subtilis): 21.3 µM (≈ 29.9 µg/mL)
MIC [15]: 21.3 µM (≈ 29.9 µg/mL)
MIC [16]: ≥ 56.7 µM
SMILES: CC[C@H](C)[C@@H]1NC(=O)[C@@H]2CCCN2C(=O)[C@H](CC(C)C)NC(=O)[C@@H]2CCCN2C(=O)[C@H]([C@@H](C)CC)NC(=O)[C@H](C)NC(=O)[C@H](Cc2ccc(O)cc2)NC(=O)[C@@H](NC(=O)[C@@H](NC(=O)[C@@H](N)CCCN=C(N)N)C(C)C)CSSC[C@@H](C(=O)N[C@@H](Cc2ccc(O)cc2)C(N)=O)NC1=O [RVCYAIPLPICY]

MIC [35]: 4.5 µM and 9.74 µM
MIC [2]: 9.74 µM (≈ 13 µg/mL)
MIC [8]: 9.74 µM (≈ 13 µg/mL)
MIC [36]: 37.5 µM and 74.9 µM
MIC [4]: 18.7 µM and 9.74 µM
SMILES: CC(C)C[C@H](NC(=O)[C@H](CCCN=C(N)N)NC(=O)[C@@H](N)Cc1ccc(O)cc1)C(=O)N[C@@H](CCCN=C(N)N)C(=O)N[C@H](C(=O)N[C@@H](CCCCN)C(=O)N[C@@H](Cc1c[nH]c2ccccc12)C(=O)N[C@@H](CCCCN)C(=O)N[C@@H](Cc1c[nH]c2ccccc12)C(N)=O)C(C)C [YRLRVKWKW]
